Results from publication PMC12566046, “Arylpiperazinyl-Benzocycloheptapyrrole-Carboxamides Endowed with Dual Anticancer and Antiviral Activities” (Molecules, 2025).

Assays:
[1] = system: CCRF-CEM (leukemia cell line); experiment: NCI-60 single-dose assay; format: cell-based, human; conditions: Homo sapiens, read-out: growth inhibition (GI%) and cytotoxicity (negative values)
Description: (§1) We first evaluated the cytotoxic activity of tricyclic-pyrrole carboxamides 1–20 using the NCI-60 cell line panel, representing nine different human cancers: leukemia, melanoma, and cancers of the lung, colon, central nervous system (CNS), ovary, kidney, prostate, and breast (the one-dose graph for compounds 1–20 is reported in Supplementary Materials, Figures S43–S62). Compounds 1, 5, 10, 11, 17, and 20 satisfied pre-determined threshold inhibition criteria in a minimum number of cell lines; therefore, they were also tested in the full five-dose assay (Figures S63–S68 in the Supplementary Materials).

[2] = system: COLO 205 (colon cancer cell line); experiment: NCI-60 single-dose assay; format: cell-based, human; conditions: Homo sapiens, COLO 205, read-out: growth inhibition (GI%) and cytotoxicity (negative values)
Description: as §1

[3] = system: EKVX (non-small cell lung cancer cell line); experiment: NCI-60 single-dose assay; format: cell-based, human; conditions: Homo sapiens, read-out: growth inhibition (GI%) and cytotoxicity (negative values)
Description: as §1

[4] = system: HCC-2998 (colon cancer cell line); experiment: NCI-60 single-dose assay; format: cell-based, human; conditions: for inhibition at 10 µM: Homo sapiens, HCC 2998, read-out: growth inhibition (GI%) and cytotoxicity (negative values)
Description: as §1

[5] = system: HCT-116 (colon cancer cell line); experiment: NCI-60 single-dose assay; format: cell-based, human; conditions: Homo sapiens, HCT-116, read-out: growth inhibition (GI%) and cytotoxicity (negative values)
Description: as §1

[6] = system: HCT-15 (colon cancer cell line); experiment: NCI-60 single-dose assay; format: cell-based, human; conditions: Homo sapiens, HCT-15, read-out: growth inhibition (GI%) and cytotoxicity (negative values)
Description: as §1

[7] = system: HL-60(TB) (leukemia cell line); experiment: NCI-60 single-dose assay; format: cell-based, human; conditions: Homo sapiens, HL-60, read-out: growth inhibition (GI%) and cytotoxicity (negative values)
Description: as §1

[8] = system: HT29 (colon cancer cell line); experiment: NCI-60 single-dose assay; format: cell-based, human; conditions: Homo sapiens, HT-29, read-out: growth inhibition (GI%) and cytotoxicity (negative values)
Description: as §1

[9] = system: KM12 (colon cancer cell line); experiment: NCI-60 single-dose assay; format: cell-based, human; conditions: Homo sapiens, KM12, read-out: growth inhibition (GI%) and cytotoxicity (negative values)
Description: as §1

[10] = system: LOX IMVI (melanoma cell line); experiment: NCI-60 single-dose assay; format: cell-based, human; conditions: Homo sapiens, LOX IMVI, read-out: growth inhibition (GI%) and cytotoxicity (negative values)
Description: as §1

M14 (melanoma cell line) = experiment: NCI-60 single-dose assay; format: cell-based, human; conditions: Homo sapiens, M14, read-out: growth inhibition (GI%) and cytotoxicity (negative values)
Description: as §1

[11] = system: MALME-3M (melanoma cell line); experiment: NCI-60 single-dose assay; format: cell-based, human; conditions: Homo sapiens, Malme-3M, read-out: growth inhibition (GI%) and cytotoxicity (negative values)
Description: as §1

[12] = system: MCF-7 (breast cancer cell line); experiment: NCI-60 single-dose assay; format: cell-based, human; conditions: Homo sapiens, MCF7, read-out: growth inhibition (GI%) and cytotoxicity (negative values), MCF-7, 10^−5 M
Description: as §1

[13] = system: MDA-MB-435 (melanoma cell line); experiment: NCI-60 single-dose assay; format: cell-based, human; conditions: Homo sapiens, MDA-MB-435, read-out: growth inhibition (GI%) and cytotoxicity (negative values)
Description: as §1

[14] = system: MOLT-4 (leukemia cell line); experiment: NCI-60 single-dose assay; format: cell-based, human; conditions: Homo sapiens, MOLT-4, read-out: growth inhibition (GI%) and cytotoxicity (negative values)
Description: as §1

[15] = system: RPMI-8226 (leukemia cell line); experiment: NCI-60 single-dose assay; format: cell-based, human; conditions: Homo sapiens, RPMI-8226, read-out: growth inhibition (GI%) and cytotoxicity (negative values)
Description: as §1

[16] = system: SK-MEL-2 (melanoma cell line); experiment: NCI-60 single-dose assay; format: cell-based, human; conditions: Homo sapiens, SK-MEL-2, read-out: growth inhibition (GI%) and cytotoxicity (negative values)
Description: as §1

[17] = system: SK-MEL-28 (melanoma cell line); experiment: NCI-60 single-dose assay; format: cell-based, human; conditions: Homo sapiens, SK-MEL-28, read-out: growth inhibition (GI%) and cytotoxicity (negative values)
Description: as §1

SR (leukemia cell line) = experiment: NCI-60 single-dose assay; format: cell-based, human; conditions: Homo sapiens, read-out: growth inhibition (GI%) and cytotoxicity (negative values)
Description: as §1

[18] = system: SW-620 (colon cancer cell line); experiment: NCI-60 single-dose assay; format: cell-based, human; conditions: Homo sapiens, SW-620, read-out: growth inhibition (GI%) and cytotoxicity (negative values)
Description: as §1

[19] = system: UACC-257 (melanoma cell line); experiment: NCI-60 single-dose assay; format: cell-based, human; conditions: Homo sapiens, UACC-257, read-out: growth inhibition (GI%) and cytotoxicity (negative values)
Description: as §1

[20] = system: UACC-62 (melanoma cell line); experiment: NCI-60 single-dose assay; format: cell-based, human; conditions: Homo sapiens, UACC-62, read-out: growth inhibition (GI%) and cytotoxicity (negative values)
Description: as §1

[21] = system: IAV strain A/PR/8/34 (H1N1); conditions: preliminary screening
[22] = system: BT-549 (breast cancer cell line); experiment: NCI-60 single-dose assay; format: cell-based, human; conditions: Homo sapiens, BT-549, read-out: growth inhibition (GI%) and cytotoxicity (negative values)
Description: as §1

[23] = system: MDA-MB-231/ATCC (breast cancer cell line); experiment: NCI-60 single-dose assay; format: cell-based, human; conditions: Homo sapiens, MDA-MB-231, read-out: growth inhibition (GI%) and cytotoxicity (negative values)
Description: as §1

[24] = system: MDA-MB-468 (breast cancer cell line); experiment: NCI-60 single-dose assay; format: cell-based, human; conditions: Homo sapiens, MDA-MB-468, read-out: growth inhibition (GI%) and cytotoxicity (negative values)
Description: as §1

[25] = system: UO-31 (renal cancer cell line); experiment: NCI-60 single-dose assay; format: cell-based, human; conditions: Homo sapiens, UO-31, read-out: growth inhibition (GI%) and cytotoxicity (negative values)
Description: as §1

[26] = system: 786-0 (renal cancer cell line); experiment: NCI-60 single-dose assay; format: cell-based, human; conditions: Homo sapiens, 786-0, read-out: growth inhibition (GI%) and cytotoxicity (negative values)
Description: as §1

[27] = system: CAKI-1 (renal cancer cell line); experiment: NCI-60 single-dose assay; format: cell-based, human; conditions: Homo sapiens, CAKI-1, read-out: growth inhibition (GI%) and cytotoxicity (negative values)
Description: as §1

[28] = system: NCI-H226 (non-small cell lung cancer cell line); experiment: NCI-60 single-dose assay; format: cell-based, human; conditions: Homo sapiens, NCI-H226, read-out: growth inhibition (GI%) and cytotoxicity (negative values)
Description: as §1

[29] = system: NCI-H23 (non-small cell lung cancer cell line); experiment: NCI-60 single-dose assay; format: cell-based, human; conditions: Homo sapiens, NCI-H23, read-out: growth inhibition (GI%) and cytotoxicity (negative values)
Description: as §1

[30] = system: NCI-H460 (non-small cell lung cancer cell line); experiment: NCI-60 single-dose assay; format: cell-based, human; conditions: Homo sapiens, NCI-H460, read-out: growth inhibition (GI%) and cytotoxicity (negative values)
Description: as §1

[31] = system: RXF 393 (renal cancer cell line); experiment: NCI-60 single-dose assay; format: cell-based, human; conditions: Homo sapiens, RXF 393, read-out: growth inhibition (GI%) and cytotoxicity (negative values)
Description: as §1

[32] = system: SN12C (renal cancer cell line); experiment: NCI-60 single-dose assay; format: cell-based, human; conditions: Homo sapiens, read-out: growth inhibition (GI%) and cytotoxicity (negative values)
Description: as §1

[33] = system: T-47D (breast cancer cell line); experiment: NCI-60 single-dose assay; format: cell-based, human; conditions: Homo sapiens, T47D, read-out: growth inhibition (GI%) and cytotoxicity (negative values)
Description: as §1

NCI-60 cell line panel = experiment: NCI-60 single-dose assay, whole panel; format: cell-based, human; conditions: summary over the panel
Description: as §1

SMILES | inhibition at 10 µM [1] [%] | inhibition at 10 µM [2] [%] | inhibition at 10 µM [5] [%] | inhibition at 10 µM [6] [%] | inhibition at 10 µM [7] [%] | inhibition at 10 µM [8] [%] | inhibition at 10 µM [9] [%] | inhibition at 10 µM [10] [%] | inhibition at 10 µM (M14 (melanoma cell line)) [%] | inhibition at 10 µM [11] [%] | inhibition at 10 µM [12] [%] | inhibition at 10 µM [13] [%] | inhibition at 10 µM [14] [%] | inhibition at 10 µM [15] [%] | inhibition at 10 µM [16] [%] | inhibition at 10 µM [17] [%] | inhibition at 10 µM (SR (leukemia cell line)) [%] | inhibition at 10 µM [18] [%] | inhibition at 10 µM [19] [%] | inhibition at 10 µM [20] [%] | also measured
O=C(NCCN1CCN(c2ccccc2)CC1)c1c(Cl)[nH]c2c1CCCc1ccccc1-2 [Compound 12, 2-Chloro-N-(2-(4-phenylpiperazin-1-yl)ethyl)-1,4,5,6-tetrahydrobenzo[6,7]cyclohepta[1,2-b]pyrrole-3-carboxamide] | < 60 | < 60 | 65.8 | < 60 | 67.2 | 65.5 | < 60 | < 60 | < 60 | < 60 | 60.9 | < 60 | < 60 | < 60 | < 60 | < 60 | 78.7 | < 60 | < 60 | < 60 | inhibition at 10 µM [3]: 72.3%; inhibition at 10 µM [4]: < 60%; IAV/MDCK SI [21]: 9.18
O=C(NCCN1CCN(c2ccc(Cl)cc2)CC1)c1c(Cl)[nH]c2c1CCCc1ccccc1-2 [Compound 13] | < 60 | < 60 | < 60 | < 60 | 69.6 | 69.2 | < 60 | < 60 | < 60 | < 60 | < 60 | < 60 | 61.7 | 67.4 | < 60 | < 60 | 70.7 | < 60 | < 60 | < 60 | inhibition at 10 µM [22]: < 60%; inhibition at 10 µM [4]: < 60%; inhibition at 10 µM [23]: < 60%; inhibition at 10 µM [24]: 95.3%; IAV/MDCK SI [21]: 5.45
O=C(NCCN1CCN(c2ccccc2Cl)CC1)c1c(Cl)[nH]c2c1CCCc1ccccc1-2 [Compound 14] | < 60 | < 60 | 66.5 | < 60 | 71.7 | < 60 | < 60 | < 60 | < 60 | < 60 | < 60 | < 60 | < 60 | 60.9 | < 60 | < 60 | < 60 | < 60 | < 60 | < 60 | inhibition at 10 µM [22]: < 60%; inhibition at 10 µM [3]: 72.7%; inhibition at 10 µM [4]: < 60%; inhibition at 10 µM [23]: < 60%; inhibition at 10 µM [24]: 82.4%; inhibition at 10 µM [25]: 63.6%
COc1ccccc1N1CCN(CCNC(=O)c2c(Cl)[nH]c3c2CCCc2ccccc2-3)CC1 [Compound 15] | < 60 | < 60 | 65.2 | 66.4 | 86.6 | 79.4 | < 60 | 60.6 | 84.8 | 70.1 | 73 | < 60 | 76.5 | 70.1 | < 60 | < 60 | 95.5 | 60.1 | 67 | < 60 | inhibition at 10 µM [26]: < 60%; inhibition at 10 µM [22]: 66.5%; inhibition at 10 µM [27]: 61%; inhibition at 10 µM [3]: 81.7%; growth inhibition (GI%) and cytotoxicity (negative values) ([4]; human): −18.77%; inhibition at 10 µM [23]: < 60%; inhibition at 10 µM [24]: 94.8%; inhibition at 10 µM [28]: < 60%; inhibition at 10 µM [29]: < 60%; inhibition at 10 µM [30]: < 60%; inhibition at 10 µM [31]: < 60%; inhibition at 10 µM [32]: < 60%; inhibition at 10 µM [25]: 63.6%; IAV/MDCK SI [21]: 0.47
N#Cc1ccccc1N1CCN(CCNC(=O)c2c(Cl)[nH]c3c2CCCc2ccccc2-3)CC1 [Compound 18, 2-Chloro-N-(2-(4-(2-cyanophenyl)piperazin-1-yl)ethyl)-1,4,5,6-tetrahydrobenzo[6,7]cyclohepta[1,2-b]pyrrole-3-carboxamide] | < 60 | < 60 | 70.1 | 61.3 | 74.3 | 64.2 | < 60 | < 60 | < 60 | < 60 | 78.5 | 64.5 | 81.8 | 69.1 | < 60 | < 60 | 74.2 | < 60 | < 60 | < 60 | inhibition at 10 µM [26]: < 60%; inhibition at 10 µM [22]: 78.3%; inhibition at 10 µM [27]: 62.7%; inhibition at 10 µM [3]: 92.8%; inhibition at 10 µM [4]: < 60%; inhibition at 10 µM [23]: < 60%; inhibition at 10 µM [24]: 98.7%; inhibition at 10 µM [28]: < 60%; inhibition at 10 µM [29]: < 60%; inhibition at 10 µM [30]: < 60%; inhibition at 10 µM [31]: < 60%; inhibition at 10 µM [32]: < 60%; inhibition at 10 µM [33]: 71.8%; inhibition at 10 µM [25]: 67%; growth inhibition (GI%) reached against cancer cell lines of the NCI-60 panel (NCI-60 cell line panel): > 90%; IAV/MDCK SI [21]: 0.28
